Data taken from US5169838A, “Benzopyranone-β-D-thioxylosides and their use in therapy” (Fournier Industrie et Sante, priority 1989, dated 1992).

Experiment: venous thrombosis (venous stasis under hypercoagulation with activated factor X, Wessler technique)
Type: in vivo, male Wistar rats
Settings: po, administered orally, rat, thrombosis induced 4 hours after treatment, thrombus weighed
Experimental: The study is performed on unfasted male Wistar rats weighing 250 to 280 g, divided up into groups of 10 animals each. The test products are administered orally as a suspension in PEG 400. A thrombosis is induced 4 hours after this treatment and the thrombus formed is removed and weighed.

Compared with Cc1c(Cl)c(=O)oc2cc(O[C@@H]3SC[C@@H](O)[C@H](O)[C@H]3O)ccc12 [Example 17, 3-chloro-4-methyl-2-oxo-2H-1-benzopyran-7-yl 5-thio-β-D-xylopyranoside], Cc1oc2cc(O[C@@H]3SC[C@@H](O)[C@H](O)[C@H]3O)ccc2c(=O)c1C [Example 22, 2,3-dimethyl-4-oxo-4H-1-benzopyran-7-yl 5-thio-β-D-xylopyranoside] is lower in inhibition in vivo at 3 mg/kg: 64% for the first, 36% for the second.

Going from CC(=O)O[C@@H]1[C@@H](OC(C)=O)[C@H](OC(C)=O)CS[C@H]1Oc1ccc2c(C)c(Cl)c(=O)oc2c1 [Example 17a, 3-chloro-4-methyl-2-oxo-2H-1-benzopyran-7-yl 2,3,4-tri-O-acetyl-5-thio-β-D-xylopyranoside] to CC(=O)O[C@@H]1[C@@H](OC(C)=O)[C@H](OC(C)=O)CS[C@H]1Oc1ccc2c(=O)c(C)c(C)oc2c1 [Example 22a, 2,3-dimethyl-4-oxo-4H-1-benzopyran-7-yl 2,3,4-tri-O-acetyl-5-thio-β-D-xylopyranoside], the inhibition in vivo at 3 mg/kg falls from 67% to 66%.

First: Cc1c(-c2ccccc2)c(=O)oc2cc(O[C@@H]3SC[C@@H](O)[C@H](O)[C@H]3O)ccc12 [Example 18, 4-methyl-2-oxo-3-phenyl-2H-1-benzopyran-7-yl 5-thio-β-D-xylopyranoside]
Second: O=c1cc(-c2ccccc2)oc2cc(O[C@@H]3SC[C@@H](O)[C@H](O)[C@H]3O)ccc12 [Example 25, 4-oxo-2-phenyl-4H-1-benzopyran-7-yl 5-thio-β-D-xylopyranoside]
The inhibition in vivo at 3 mg/kg of the first is higher: 43% for the first, 28% for the second.

CC(=O)O[C@@H]1[C@@H](OC(C)=O)[C@H](OC(C)=O)CS[C@H]1Oc1ccc2c(C)c(-c3ccccc3)c(=O)oc2c1 [Example 18a, 4-methyl-2-oxo-3-phenyl-2H-1-benzopyran-7-yl 2,3,4-tri-O-acetyl-5-thio-β-D-xylopyranoside] and CC(=O)O[C@@H]1[C@@H](OC(C)=O)[C@H](OC(C)=O)CS[C@H]1Oc1ccc2c(=O)cc(C)oc2c1 [Example 20a, 2-methyl-4-oxo-4H-1-benzopyran-7-yl 2,3,4-tri-O-acetyl-5-thio-β-D-xylopyranoside] are the same in inhibition in vivo at 3 mg/kg: 20% for the first, 20% for the second.

Compared with CC(C)c1cc(=O)oc2cc(O[C@@H]3SC[C@@H](O)[C@H](O)[C@H]3O)ccc12 [Example 19, 4-(1-methylethyl)-2-oxo-2H-1-benzopyran-7-yl 5-thio-β-D-xylopyranoside], Cc1cc(=O)c2ccc(O[C@@H]3SC[C@@H](O)[C@H](O)[C@H]3O)cc2o1 [Example 20, 2-methyl-4-oxo-4H-1-benzopyran-7-yl 5-thio-β-D-xylopyranoside] is higher in inhibition in vivo at 3 mg/kg: 36% for the first, 53% for the second.

First: CCc1cc(=O)c2ccc(O[C@@H]3SC[C@@H](O)[C@H](O)[C@H]3O)cc2o1 [Example 21, 2-ethyl-4-oxo-4H-1-benzopyran-7-yl 5-thio-β-D-xylopyranoside]
Second: Cc1cc(=O)c2cc(O[C@@H]3SC[C@@H](O)[C@H](O)[C@H]3O)ccc2o1 [Example 24, 2-methyl-4-oxo-4H-1-benzopyran-6-yl 5-thio-β-D-xylopyranoside]
The inhibition in vivo at 3 mg/kg of the first is higher: 70% for the first, 36% for the second.

First: CCc1cc(=O)c2ccc(O[C@@H]3SC[C@@H](OC(C)=O)[C@H](OC(C)=O)[C@H]3OC(C)=O)cc2o1 [Example 21a, 2-ethyl-4-oxo-4H-1-benzopyran-7-yl 2,3,4-tri-O-acetyl-5-thio-β-D-xylopyranoside]
Second: CCc1cc(=O)c2ccc(S[C@@H]3SC[C@@H](OC(C)=O)[C@H](OC(C)=O)[C@H]3OC(C)=O)cc2o1 [Example 27a, 2-ethyl-4-oxo-4H-1-benzopyran-7-yl 2,3,4-tri-O-acetyl-1,5-dithio-β-D-xylopyranoside]
The inhibition in vivo at 3 mg/kg of the first is higher: 42% for the first, 23% for the second.

Cc1cc(=O)c2ccc(S[C@@H]3SC[C@@H](O)[C@H](O)[C@H]3O)cc2o1 [Example 23, 2-methyl-4-oxo-4H-1-benzopyran-7-yl 1,5-dithio-β-D-xylopyranoside] and CCc1cc(=O)c2ccc(S[C@@H]3SC[C@@H](O)[C@H](O)[C@H]3O)cc2o1 [Example 27, 2-ethyl-4-oxo-4H-1-benzopyran-7-yl 1,5-dithio-β-D-xylopyranoside] are the same in inhibition in vivo at 3 mg/kg: 26% for the first, 26% for the second.

First: Cc1oc2cc(S[C@@H]3SC[C@@H](O)[C@H](O)[C@H]3O)ccc2c(=O)c1C [Example 26, 2,3-dimethyl-4-oxo-4H-1-benzopyran-7-yl 1,5-dithio-β-D-xylopyranoside]
Second: Cc1oc2cc(O[C@@H]3SC[C@@H](O)[C@H](O)[C@H]3O)ccc2c(=O)c1Br [Example 28, 3-bromo-2-methyl-4-oxo-4H-1-benzopyran-7-yl 5-thio-β-D-xylopyranoside]
The inhibition in vivo at 3 mg/kg of the first is lower: 27% for the first, 49% for the second.

Compound CC(=O)O[C@@H]1[C@@H](OC(C)=O)[C@H](OC(C)=O)CS[C@H]1Oc1ccc2c(=O)c(Br)c(C)oc2c1 [Example 28a, 3-bromo-2-methyl-4-oxo-4H-1-benzopyran-7-yl 2,3,4-tri-O-acetyl-5-thio-β-D-xylopyranoside] has an inhibition in vivo at 3 mg/kg of 25%.
